Measured values taken from US10434077B2, “Glycolic acid and/or D-lactic acid for the treatment of neurodegenerative diseases” (MAX-PLANCK-GESELLSCHAFT ZUR FOERDERUNG DER WISSENSCHAFTEN …, priority 2014, dated 2019).
Entries after “also recorded” stand apart in the source; their conditions may differ. Structures can show the parent of a compound that is named as a salt. Where two headings read alike, the source gives them in different places.

Assays:
[1] = tested on: DJ-1 RNAi HeLa cells; assay: Mitotic rounding pressure of DJ-1 RNAi HeLa cells (AFM microcantilever); assay type: cell-based, human; conditions: for rescue of the lower pressure phenotype in low or no glucose medium: HeLa kept 2 or more passages in low or no glucose medium before RNAi, measured 1 hour after addition; for rescue of the reduced rounding pressure of mitotic DJ-1 RNAi cells: HeLa, substance added to medium, concentration not given; for rescue of the lower pressure phenotype at 10 mM: RNAi-treated mitotic HeLa cells, 10 mM supplement
Experimental: (§1) HeLa-Kyoto cells stably expressing histone H2B-EGFP and mCherry-CAAX (clone 2B4), their parental cells, and HeLa-Kyoto expressing mouse DJ-1 transgene were used. Also, mouse embryonic fibroblast (MEF) (Pham et al., 2010) cells were used. Cells were maintained in DMEM supplemented with 10% fetal bovine serum (FBS), 2 mM GlutaMAX, 100 unit/ml penicillin, 100 μg/ml streptomycin, plus additional antibiotics for the transgene (0.5 mg/ml Geneticin for H2B-EGFP and mouse DJ-1 BAC transgene; 0.5 pug/ml puromycin for mCherry-CAAX), at 37° C. in a 5% CO2 environment. The DMEM with high glucose (5 g/1) was used unless specifically mentioned (e.g. FIG. 14). For atomic force microscopy (AFM) measurements of mammalian cells, a CO2-independent medium containing 4 mM sodium bicarbonate and 20 mM HEPES Was used. HeLa Cells Were RNAi-transfected with 160 nM endoribonuclease-digested small interfering RNA (MISSION esiRNA, Sigma) using oligofectamine reagent (Invitrogen). Paraquat (PQ^2+) was added 24 hours after RNAI. Cells were assayed after 48 hours from RNAI.
(§2) Cell rounding pressure analysis with microcantilevers Cells were grown on a glass-base dish (FD35, World Precision Instruments) with a silicon spacer, which was prepared from μ-Chamber 12 well (ibidi), in the center. Medium was replaced with the CO2-independent medium, then the dish was mounted on the stage of a light microscope (AxioObserver Z1 or Axiovert200, Zeiss) equipped with a 20× objective (Plan Apochromat, NA=0.80). To measure the force of the mitotic cell, a tipless microcantilever (NSC12/CSC37-B with a nominal spring constant of 0.3 N/m, MikroMasch, Estonia) mounted on a glass block of the AFM head (NanoWizard I or II, JPK instruments, Berlin) was used. Setup and calibration were done before every experiment; see Stewart et al (Stewart at al., 2012) for the details of the procedures. In a quick force measurement illustrated in FIG. 5A, the cantilever was set at […] above the glass dish and moved over the mitotically arrested cells to measure the equilibrium force. Measuring the cellular force and pressure through mitosis was done as described (Stewart at al., 2012, Stewart at al., 2011). Otherwise the cell pressure and volume were measured in a constant-height assay, as illustrated in FIG. 5B: the cantilever was first set at 14 μm height and placed over a metaphase cell to record rounding force. The cantilever was then brought down to 8 μm height at 0.1 μmu/sec, to measure peak and equilibrium forces. The maximal cross-section area of the cell was measured from the DIC or mCherry-CAAX image to calculate cell pressure and volume. Calculation of cell pressure and volume, and the contact area to the Cantilever was done as described (Stewart et al., 2012; Stewart et al., 2011). In every experiment, RNAi penetrance was confirmed by lower pressure of MYH9 RNAI-treated cells (Toyoda at al., 2011).

[2] = tested on: primary dopaminergic neurons from wild-type E14.5 embryos treated with PQ2+; conditions: 12.5 μM PQ2+ for 72 hours, 10 mM supplement
Experimental: Briefly, brain mesencephalons from E14.5 C57JBL6 or DJ-1 embryos were dissected under the microscope and digested with Trypsin-EDTA (Sigma-Aldrich). The trypsin reaction was stopped by adding the basic medium (BM) containing Neurobasal A medium (Gibco), 1 mg/ml penicillin/streptomycin, 10% (v/v) fetal calf serum (Invitrogen) and 2 mM L-glutamine and cells were mechanically dissociated using a fire-polished Pasteur pipette. Medium was fully replaced by centrifuging for 5 min. at 1200 rpm, aspiring the supernatant and adding 8 ml of the fresh BM to the pellet. […] The same volume of medium containing the different treatment substances was added 4 hours after plating to obtain the following treatment concentrations: control, 3 mM glucose, 10 mM GA, 10 mMDL and 10 mM LL. 24 hours later ⅓ of the medium was replaced with fresh BM. […]
(§3) Dopaminergic TH^+ neurons were observed using an inverted fluorescence microscope (Axiovert 200M, Zeiss) under a 10× objective (PlanApo, NA=0.45). The diameter of every well was scanned in two perpendicular directions (i.e. top to bottom and left to right) and total TH^+ neurons were counted for every well.

[3] = tested on: dopaminergic neurons from DJ-1 knock out mice; assay: In vitro survival of primary dopaminergic (TH+) neurons, DJ-1 knock out; assay type: cell-based, mouse; conditions: DJ-1 KO/mutant; 3 mM glucose, 10 mM GA, 10 mM DL
Experimental: (§4) Briefly, brain mesencephalons from E14.5 C57JBL6 or DJ-1 embryos were dissected under the microscope and digested with Trypsin-EDTA (Sigma-Aldrich). The trypsin reaction was stopped by adding the basic medium (BM) containing Neurobasal A medium (Gibco), 1 mg/ml penicillin/streptomycin, 10% (v/v) fetal calf serum (Invitrogen) and 2 mM L-glutamine and cells were mechanically dissociated using a fire-polished Pasteur pipette. Medium was fully replaced by centrifuging for 5 min. at 1200 rpm, aspiring the supernatant and adding 8 ml of the fresh BM to the pellet. […] The same volume of medium containing the different treatment substances was added 4 hours after plating to obtain the following treatment concentrations: control, 3 mM glucose, 10 mM GA, 10 mMDL and 10 mM LL. 24 hours later ⅓ of the medium was replaced with fresh BM. On DIV3 (day-in-vitro-culture 3) half of the medium was replaced with B27 medium containing Neurobasal A medium, 1 mg/ml penicillin/streptomycin, 2 mM L-Glutamine (Sigma-Aldrich) and B-27 supplement (Life Technologies) and on DIV5 all medium was replaced by B27 medium.
as §3

[4] = tested on: primary mesencephalic dopaminergic neurons from wild type mouse embryos; assay: In vitro survival of primary dopaminergic (TH+) neurons, wild type; assay type: cell-based; conditions: 3 mM glucose, 10 mM GA, 10 mM DL, 10 mM LL, TH+ cells relative to no supplement
Experimental: as §4, §3

[5] = tested on: DJ-1 RNAi HeLa cells; assay type: cell-based, human; conditions: for rescue of the circular mitochondrial phenotype: paraquat-treated DJ-1 RNAi HeLa cells, supplements for 24 hours
Experimental: as §1
To film the osmotically challenged HeLa cells, a DeltaVision system (Applied Precision) was used, equipped with an Olympus IX-71 Inverted microscope and a 40× (UPIanApo, NA=1.00) objective. Time-lapse images were acquired at 1-min intervals except during osmotic shock treatment (equal volume of water for hypotonic shock; equal volume of the AFM medium containing 2.86% (w/v) xylose for hypertonic shock). Deconvolved and maximally projected images were analyzed manually on Image.J to annotate the radius and the volume of the round objects (i.e. mitotic cells), assuming that the cells were spherical (Stewart et al., 2011). To image mitochondria of HeLa cells, MitoTracker Red CMXRos was added at 150 nM and fixed with 3% (v/w) paraformaldehyde in PBS, 1 mM MgCl2, and 5 mM EGTA. Chromatin was counter-stained by 1 μg/ml Hoechst33342. They were imaged on the DeltaVision system using a 60× objective (PlanApo N, NA=1.42, Olympus), and deconvolved and maximally projected images were used for the analysis. Due to high background of MitoTracker in the center of the cell, mitochondria in a 15×15 um area in the periphery were manually annotated on Image.J software.

[6] = tested on: DJ-1 GLO1 double RNAi-treated cells; assay: Mitotic rounding pressure of DJ-1 GLO1 double RNAi-treated cells (AFM); assay type: cell-based, human; conditions: both glyoxalases DJ-1 and GLO1 knocked down
Experimental: as §1, with “HeLa Cells Were RNAi-transfected with 160 nM endoribonuclease-digested small interfering RNA (MISSION esiRNA, Sigma) using oligofectamine reagent (Invitrogen). Paraquat (PQ^2+) was added 24 hours after RNAI. Cells were assayed after 48 hours from RNAI.” left out
Cell rounding pressure analysis with microcantilevers Cells were grown on a glass-base dish (FD35, World Precision Instruments) with a silicon spacer, which was prepared from μ-Chamber 12 well (ibidi), in the center. […] Otherwise the cell pressure and volume were measured in a constant-height assay, as illustrated in FIG. 5B: the cantilever was first set at 14 μm height and placed over a metaphase cell to record rounding force. […] The maximal cross-section area of the cell was measured from the DIC or mCherry-CAAX image to calculate cell pressure and volume. […]

[7] = tested on: mitotic MEF cells (wild type and DJ-1 knock-out); assay: Mitotic rounding pressure of mouse embryonic fibroblasts (AFM); assay type: cell-based; conditions: for rescue of the reduced rounding pressure of mitotic DJ-1-deficient MEFs: DJ-1 knock-out MEFs, concentration not given; for rescue of the lower pressure phenotype at 10 mM: mitotic DJ-1 KO MEF cells, measured after 1 hour; for rescue of the lower pressure phenotype at 10 mM / effect on pressure of mitotic WT MEFs (negative effects on cell mechanics): 10 mM supplement; for effect on pressure of mitotic WT MEFs (negative effects on cell mechanics): wild type MEFs
Experimental: as §1, §2

[8] = tested on: C. elegans ΔΔdjr double mutant and glod-4 single mutant larvae; assay type: in vivo
Experimental: (Brenner, 1974). […] All mutants were outcrossed at least twice.
Mitochondria staining was performed as previously described. Briefly, MitoTracker Deep Red or CMXROS (M22426, M7512, Life Technologies) were dissolved in DMSO at a concentration of 5 mM and kept at −20° C. as a stock solution. On the day of microscopy worms were incubated in a 1:1000 diluted MitoTracker for 45 min at room temperature. Worms were then paralyzed with 1 mM Levamizol (Sigma-Aldrich), placed on slides covered with a thin layer of NGM medium on top of which the coverslip (22×22 mm, Menzel-Glaser #1) was fixed using nail lack.
Microscopy images from live paralyzed worm larvae stained with MitoTracker were taken using a confocal microscope (LSM510, Zeiss, Germany). Samples were excited using a 514 (MitoTracker CMXRos) or a 647 (MitoTracker Deep Red) nm lasers and two channels, one BP505-550 or LP650 and the BF channel were used to acquire the images. Gain was maintained between 450 and 515 for all samples to ensure the detection of signal intensity differences.

[9] = tested on: C. elegans larvae (ΔΔdjr, glod-4)
Experimental: (A) The differential expression of djr-1.1, djr-1.2 and glod-4 was tested by RT-PCR in four replicates. […] (B) Length of the worms treated with PQ^2+. Bars and error bars show the mean and SD, respectively. […] Every strain was compared to its control at different PQ^2+ concentrations by two-way ANOVA followed by Tukey's honestly significant differences (HSD) test. (C) Worm larvae treated with PQ or control. Scale bar, 250 μm. (D) survival of the worm larvae treated with 200 μM paraquat and 1 mM of the Indicated supplements. Bars and error bars show the mean and SD, respectively. […] Every strain was compared to its own control by two-way ANOVA followed by Tukey's HSD test. Data were normalized by Freeman-Tukey's double arcsine transformation prior to ANOVA. *p<0.05; **p<0.01; ***p<0.001.
All C. elegans strains were maintained on NGM agar plates seeded with Escherichia coli NA22 at 15° C. […] Mutant strains djr-1.1(tm918), djr-1.2(tm951) and glod4(tm1266) were obtained from National Bioresource Project, Japan. Wild type (N2) and daf-2 mutant strains were obtained from Caenorhabditis Genetics Center, USA. All mutants were outcrossed at least twice. DJ-1 double mutant djr-1.1(tm918), djr-1.2(tm951), abbreviated as ΔΔdjr, was achieved by crossing both single mutants. This strain was then further crossed to daf-2 to generate daf-2; ΔΔdjr triple mutant.

[10] = estimated; cited from earlier work

## NC(=O)c1ccc(N)nc1 [6-aminonicotinamide, reference compound]
[1]; mitotic HeLa, measured after 1 hour
  effect on the glucose-mediated rescue of pressure in DJ-1 RNAi cells: inhibited

## C[C@@H](O)C(=O)O [DL, D-(−)-lactic acid]
[1]
  rescue of the lower pressure phenotype in low or no glucose medium: rescue of the lower pressure phenotype was observed
  rescue of the reduced rounding pressure of mitotic DJ-1 RNAi cells: could rescue the reduced pressure
[1]; measured after 1 hour
  rescue of the lower pressure phenotype at 10 mM: rescued the lower pressure phenotype
[2]
  rescue of the toxic effect of paraquat on dopaminergic neurons: significantly rescue the toxic effect of paraquat
[3]
  survival of dopaminergic neurons from DJ-1 knock out mice: could stimulate neuronal survival; also recorded: stimulate the survival
[4]
  in vitro survival of dopaminergic (TH+) neurons: stimulated; also recorded: stimulate the survival
[4]; listed as D-lactate
  in vitro survival of dopaminergic (TH+) neurons: support viability
[5]
  rescue of the circular mitochondrial phenotype: rescued
[5]; listed as D-lactate
  rescue of the circular mitochondrial phenotype: rescue mitochondria structure
[6]
  rescue of the pressure phenotype in DJ-1 and GLO1 double knock-down cells: could rescue
[7]
  rescue of the reduced rounding pressure of mitotic DJ-1-deficient MEFs: could rescue the reduced pressure
  rescue of the lower pressure phenotype at 10 mM: rescued the lower pressure phenotype

## O=C(O)CO [GA, 2-hydroxyethanoic acid]
[1]
  rescue of the lower pressure phenotype in low or no glucose medium: rescue of the lower pressure phenotype was observed
  rescue of the reduced rounding pressure of mitotic DJ-1 RNAi cells: could rescue the reduced pressure
[1]; measured after 1 hour
  rescue of the lower pressure phenotype at 10 mM: rescued the lower pressure phenotype
[3]
  survival of dopaminergic neurons from DJ-1 knock out mice: could stimulate neuronal survival; also recorded: stimulate the survival
[4]
  in vitro survival of dopaminergic (TH+) neurons: stimulated; also recorded: stimulate the survival
[4]; listed as Glycolate
  in vitro survival of dopaminergic (TH+) neurons: support viability
[5]
  rescue of the circular mitochondrial phenotype: rescued
[5]; listed as glycolate
  rescue of the circular mitochondrial phenotype: rescue mitochondria structure
[8]; paraquat-treated ΔΔdjr double mutant and glod-4 single mutant larvae
  reversal of circular mitochondria and diminished MitoTracker staining: reversed
[6]
  rescue of the pressure phenotype in DJ-1 and GLO1 double knock-down cells: could rescue
[7]
  rescue of the reduced rounding pressure of mitotic DJ-1-deficient MEFs: could rescue the reduced pressure
  rescue of the lower pressure phenotype at 10 mM: rescued the lower pressure phenotype
  effect on pressure of mitotic WT MEFs (negative effects on cell mechanics): decreases pressure
[9]; in vivo
  restoration of viability of ΔΔdjr mutant larvae: restored

## C[C@H](O)C(=O)O [LL, L-(+)-lactic acid, reference compound]
[1]
  rescue of the reduced rounding pressure of mitotic DJ-1 RNAi cells: had no effect
[7]
  rescue of the reduced rounding pressure of mitotic DJ-1-deficient MEFs: had no effect
  rescue of the lower pressure phenotype at 10 mM: but not LL, rescued the lower pressure phenotype
  effect on pressure of mitotic WT MEFs (negative effects on cell mechanics): decreases pressure

## OCCOCCO [diethylene glycol]
[10]
  minimum toxic dose: 0.14 mg glycolic acid per kg of body weight

## NC(=O)CC[C@H](N)C(=O)O [glutamine, reference compound]
[1]
  rescue of the reduced rounding pressure of mitotic DJ-1 RNAi cells: neither pyruvate, which is produced from glucose, nor glutamine, which can enter the Krebs cycle, rescued the DJ-1 pressure phenotype

## C[n+]1ccc(-c2cc[n+](C)cc2)cc1 [paraquat, reference compound]
[5]; low doses of paraquat, DJ-1 RNAi HeLa cells
  effect of paraquat on mitochondrial structure: disrupted mitochondrial structure
[8]; reproductive larvae of C. elegans
  effect of paraquat on mitochondria of worm larvae: disrupted mitochondria
[9]; glod-4, 200 μM paraquat
  effect of paraquat on viability of glod-4 mutant larvae: not affected
[9]; ΔΔdjr, 200 μM paraquat
  effect of paraquat on viability of ΔΔdjr mutant larvae: decreased viability

## CC(=O)C(=O)O [pyruvate, 2-oxopropanoic acid salt, reference compound]
[1]
  rescue of the reduced rounding pressure of mitotic DJ-1 RNAi cells: neither pyruvate, which is produced from glucose, nor glutamine, which can enter the Krebs cycle, rescued the DJ-1 pressure phenotype
[5]
  rescue of the circular mitochondrial phenotype: cannot rescue the circular phenotype
